Columns and labels:
Nilaparvata lugens [1] = assay: Insecticidal activity against Nilaparvata lugens (brown planthopper) assessed as mortality at 200 ppm after 2 days by foliar spraying method; type: functional; conditions: 48 h
Nilaparvata lugens [2] = assay: Insecticidal activity against Nilaparvata lugens (brown planthopper) assessed as mortality at 200 ppm after 6 days by foliar spraying method; type: functional; conditions: 144 h
Nephotettix cincticeps [3] = assay: Insecticidal activity against Nephotettix cincticeps Izumi (green rice leafhopper) assessed as mortality at 200 ppm after 6 days by foliar spraying method; type: functional; conditions: 144 h
Nephotettix cincticeps [4] = assay: Insecticidal activity against drug-resistant Nephotettix cincticeps Izumi (green rice leafhopper) assessed as mortality […] after 2 days by foliar spraying method; type: functional; conditions: 48 h
Nephotettix cincticeps [5] = assay: Insecticidal activity against Nephotettix cincticeps Izumi (green rice leafhopper) assessed as mortality at 200 ppm after 2 days by foliar spraying method; type: functional; conditions: 48 h
Tetranychus urticae = assay: Acaricidal activity against Tetranychus urticae (two-spotted spider mite) assessed as mortality at 200 ppm after 2 days by leaf dipping method; type: functional; conditions: foliar, 48 h
[6] = Drug degradation in sorensen buffer assessed as hydrolysis at 3 x 10^-5 M at pH 7.4 after 24 hr; type: physicochemical; conditions: read-out: Drug degradation
Culex pipiens = assay: Insecticidal activity against Culex pipiens assessed as mortality at 200 ppm after 2 days by immersion method; type: functional; conditions: 48 h
Plutella xylostella = assay: Insecticidal activity against Plutella xylostella (diamondback moth) assessed as mortality at 200 ppm after 2 days by foliar spraying method; type: functional; conditions: 48 h
Nephotettix cincticeps [7] = assay: Insecticidal activity against drug-susceptible Nephotettix cincticeps Ageo (green rice leafhopper) assessed as mortality […] after 2 days by foliar spraying method; type: functional; conditions: 48 h
[8] = Lipophilicity, log K of the compound; type: physicochemical; conditions: octanol/water
[9] = target: Ace-orthologous acetylcholinesterase (Nephotettix cincticeps, UniProt Q9NJH6); assay: Inhibition of drug-susceptible Nephotettix cincticeps Ageo (green rice leafhopper) acetylcholinesterase; conditions: read-out: I50
Musca domestica = assay: Insecticidal activity against Musca domestica (house fly) NAIDM; type: functional
Acetylcholinesterase [10] = target: Acetylcholinesterase (Musca domestica, UniProt Q7YWJ9); assay: Inhibition of Musca domestica (house fly) NAIDM head acetylcholinesterase; conditions: read-out: I50
Acetylcholinesterase [11] = target: T1, Acetylcholinesterase (Bos taurus, UniProt P23795); assay: Inhibition of Bos taurus (bovine) erythrocytes acetylcholinesterase; conditions: read-out: I50
T1 sequence (P23795 whole entry): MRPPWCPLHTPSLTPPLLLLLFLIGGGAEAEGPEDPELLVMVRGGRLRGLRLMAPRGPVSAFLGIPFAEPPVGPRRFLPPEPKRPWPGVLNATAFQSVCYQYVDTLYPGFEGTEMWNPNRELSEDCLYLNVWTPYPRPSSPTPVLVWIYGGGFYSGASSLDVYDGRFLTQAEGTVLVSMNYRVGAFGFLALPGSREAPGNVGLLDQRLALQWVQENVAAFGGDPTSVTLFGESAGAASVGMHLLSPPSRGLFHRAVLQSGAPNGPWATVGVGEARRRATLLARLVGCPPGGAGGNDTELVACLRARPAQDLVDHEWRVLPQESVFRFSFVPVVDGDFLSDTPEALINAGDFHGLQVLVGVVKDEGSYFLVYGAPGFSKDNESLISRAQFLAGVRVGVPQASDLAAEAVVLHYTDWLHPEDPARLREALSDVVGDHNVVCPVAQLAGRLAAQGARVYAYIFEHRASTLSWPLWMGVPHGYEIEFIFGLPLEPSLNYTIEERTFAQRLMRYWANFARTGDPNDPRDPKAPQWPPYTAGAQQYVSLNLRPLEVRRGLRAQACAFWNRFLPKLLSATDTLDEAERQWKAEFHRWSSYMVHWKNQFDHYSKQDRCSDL

Nephotettix cincticeps [12] = assay: Insecticidal activity against drug-susceptible Nephotettix cincticeps Ageo (green rice leafhopper) assessed as mortality after 2 days by foliar spraying method; type: functional; conditions: 48 h

Sequence of Acetylcholinesterase (Musca domestica, UniProt Q7YWJ9) (Q7YWJ9 whole entry): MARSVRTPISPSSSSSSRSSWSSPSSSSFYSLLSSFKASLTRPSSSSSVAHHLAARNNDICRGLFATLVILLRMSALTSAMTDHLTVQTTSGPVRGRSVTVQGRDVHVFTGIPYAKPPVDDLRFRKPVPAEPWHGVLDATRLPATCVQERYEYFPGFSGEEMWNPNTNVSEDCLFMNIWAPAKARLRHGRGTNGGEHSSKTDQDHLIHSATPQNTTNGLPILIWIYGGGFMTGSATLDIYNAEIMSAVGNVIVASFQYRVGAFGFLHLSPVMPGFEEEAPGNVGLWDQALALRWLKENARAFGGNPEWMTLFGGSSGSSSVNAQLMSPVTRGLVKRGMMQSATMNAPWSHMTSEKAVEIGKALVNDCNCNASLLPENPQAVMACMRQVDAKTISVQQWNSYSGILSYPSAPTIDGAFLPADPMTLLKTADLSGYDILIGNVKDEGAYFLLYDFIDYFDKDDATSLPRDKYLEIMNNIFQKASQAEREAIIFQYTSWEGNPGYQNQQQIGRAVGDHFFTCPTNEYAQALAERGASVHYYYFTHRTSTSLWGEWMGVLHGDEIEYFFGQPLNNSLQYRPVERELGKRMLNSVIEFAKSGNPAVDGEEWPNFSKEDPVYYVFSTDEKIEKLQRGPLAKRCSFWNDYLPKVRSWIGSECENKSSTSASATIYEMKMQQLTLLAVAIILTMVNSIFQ
Sequence of Ace-orthologous acetylcholinesterase (Q9NJH6 whole entry): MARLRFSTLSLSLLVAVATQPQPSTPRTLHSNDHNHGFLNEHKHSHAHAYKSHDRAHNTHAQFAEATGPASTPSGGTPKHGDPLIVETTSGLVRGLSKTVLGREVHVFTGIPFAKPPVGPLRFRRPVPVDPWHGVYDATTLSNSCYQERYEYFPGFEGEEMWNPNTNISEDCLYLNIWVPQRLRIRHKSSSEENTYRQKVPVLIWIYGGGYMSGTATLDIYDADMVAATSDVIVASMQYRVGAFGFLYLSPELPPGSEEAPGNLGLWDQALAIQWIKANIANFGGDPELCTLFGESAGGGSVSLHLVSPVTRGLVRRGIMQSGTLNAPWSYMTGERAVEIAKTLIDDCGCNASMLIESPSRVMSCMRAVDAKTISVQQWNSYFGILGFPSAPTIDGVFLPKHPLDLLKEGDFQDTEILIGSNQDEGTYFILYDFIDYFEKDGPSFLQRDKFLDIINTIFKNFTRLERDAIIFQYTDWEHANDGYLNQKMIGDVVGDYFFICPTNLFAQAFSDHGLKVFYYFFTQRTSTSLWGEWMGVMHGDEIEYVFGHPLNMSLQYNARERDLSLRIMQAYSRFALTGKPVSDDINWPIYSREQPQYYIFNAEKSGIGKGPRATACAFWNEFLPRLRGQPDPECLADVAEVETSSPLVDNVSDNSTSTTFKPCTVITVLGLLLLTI

SMILES | mortality at 200 ppm (Nilaparvata lugens [1]) [%] | mortality at 200 ppm (Nilaparvata lugens [2]) [%] | mortality at 200 ppm (Nephotettix cincticeps [3]) [%] | LD50 (Nephotettix cincticeps [4]) [mg/kg] | mortality at 200 ppm (Nephotettix cincticeps [5]) [%] | mortality at 200 ppm (Tetranychus urticae) [%] | degraded at 24 h, 30 µM [6] [%] | mortality at 200 ppm (Culex pipiens) [%] | mortality at 200 ppm (Plutella xylostella) [%] | LD50 (Nephotettix cincticeps [7]) [mg/kg] | log K [8] | IC50 [9] [µM] | LD50 (Musca domestica) [µg] | IC50 (Acetylcholinesterase [10]) [µM] | IC50 (Acetylcholinesterase [11]) [µM] | LD50 (Nephotettix cincticeps [12]) [mg/kg]
CC(C)CSc1nccc(OS(C)(=O)=O)n1 | 20 | 20 | 30 | > 100 | 20 | < 10 | 88.8 | 0 | 0 | > 100 | 0.18 |  |  |  |  | 
CC(C)CSc1nc(OS(C)(=O)=O)cs1 | 100 |  |  | 11.1 | 100 | < 10 | 9.8 | 100 | 0 | 8.2 | 0.316 | 58 | 3.9 | 2200 | 31 | 14.9
CC(C)CSc1nc(OS(C)(=O)=O)cc2ccccc12 | 0 | 60 | 60 |  | 30 | < 10 |  | 40 | 0 |  |  |  |  |  |  | 
CC(C)CS(=O)(=O)c1nc(OS(C)(=O)=O)cs1 |  |  |  |  |  |  |  |  |  |  |  | 0.0019 | >100 | 0.00098 | 1.4 | 0.52
CC(C)CS(=O)(=O)c1cccc(OS(C)(=O)=O)n1 |  |  |  |  |  |  |  |  |  |  |  | 0.0057 | 16 | 0.15 | 0.9 | 1.15
CC(C)C[S+]([O-])c1cccc(OS(C)(=O)=O)c1 (centres undefined) [3-(ISOBUTYLSULFINYL)PHENYL METHANESULFONATE] |  |  |  |  |  |  |  |  |  |  |  | 0.002 | 1.46 | 12 | 0.56 | 3.18
CC(C)CS(=O)(=O)c1cccc(OS(C)(=O)=O)c1 [3-(ISOBUTYLSULFONYL)PHENYL METHANESULFONATE] |  |  |  |  |  |  |  |  |  |  |  | 0.046 | >100 | 0.37 | 1 | 13
CC(C)CSc1cc2ccccc2c(OS(C)(=O)=O)n1 [3-(ISOBUTYLTHIO)ISOQUINOLIN-1-YL METHANESULFONATE] | 0 | 10 | 80 |  | 20 | < 10 |  | 50 | 0 |  |  |  |  |  |  | 
CC(C)CSc1cccc(OS(C)(=O)=O)c1 [3-(ISOBUTYLTHIO)PHENYL METHANESULFONATE] | 100 |  |  | 26.1 | 100 | < 10 | 2.6 | 100 | 0 | 10.8 | 0.541 |  |  |  |  | 
CC(C)CSc1cccnc1OS(C)(=O)=O [3-(ISOBUTYLTHIO)PYRIDIN-2-YL METHANESULFONATE] | 50 | 90 | 100 |  | 40 | < 10 |  | 30 | 0 |  |  |  |  |  |  | 
CC(C)CS(=O)(=O)c1ccnc(OS(C)(=O)=O)c1 [4-(ISOBUTYLSULFONYL)PYRIDIN-2-YL METHANESULFONATE] |  |  |  |  |  |  |  |  |  |  |  | 0.026 | 0.33 | 1.9 | 0.8 | 0.72
CC(C)CSc1ccnc(OS(C)(=O)=O)c1 [4-(ISOBUTYLTHIO)PYRIDIN-2-YL METHANESULFONATE] | 100 |  |  | 2.8 | 100 | < 10 | 4.5 | 100 | 0 | 2.3 | 0.324 |  |  |  |  | 
CC(C)CSc1nnc(OS(C)(=O)=O)s1 [5-(ISOBUTYLTHIO)-1,3,4-THIADIAZOL-2-YL METHANESULFONATE] | 0 | 20 | 0 |  | 0 | < 10 |  | 0 | 70 |  |  |  |  |  |  | 
CC(C)CSc1ccc(OS(C)(=O)=O)nc1 [5-(ISOBUTYLTHIO)PYRIDIN-2-YL METHANESULFONATE] | 100 |  | 10 |  | 0 | < 10 |  | 10 | 0 |  |  |  |  |  |  | 
CC(C)CSc1cncc(OS(C)(=O)=O)c1 [5-(ISOBUTYLTHIO)PYRIDIN-3-YL METHANESULFONATE] | 100 |  |  | 3.7 | 100 | < 10 | 3.8 | 100 | 0 | 1.9 | 0.258 |  |  |  |  | 
CC(C)CSc1cncc(OS(C)(=O)=O)n1 [6-(ISOBUTYLTHIO)PYRAZIN-2-YL METHANESULFONATE] | 100 |  | 70 | 40.1 | 50 | < 10 | 36.6 | 100 | 0 | 4.6 | 0.32 |  |  |  |  | 
CC(C)CSc1ccc(OS(C)(=O)=O)nn1 [6-(ISOBUTYLTHIO)PYRIDAZIN-3-YL METHANESULFONATE] | 0 | 0 | 0 |  | 0 | < 10 |  | 0 | 0 |  |  |  |  |  |  | 
CC(C)CSc1cccc(OS(C)(=O)=O)n1 [6-(ISOBUTYLTHIO)PYRIDIN-2-YL METHANESULFONATE] | 100 |  |  | 2.9 | 100 | 72 | 1.8 | 100 | 0 | 1.8 | 0.4 | 2000 | 1.11 | 1300 | 2000 | 1.06
CNC(=O)Oc1cccc2ccccc12 [CARBARIL] |  |  |  |  |  |  |  |  |  |  |  | 0.029 |  | 0.2 |  | 
CCC(C)c1ccccc1OC(=O)NC (centres undefined) [FENOBUCARB] |  |  |  |  |  |  |  |  |  |  |  | 0.18 | 1.44 | 1.4 | 12 | 11.8
